Data taken from patent US20050238642A1, “Modified bouganin proteins, cytotoxins and methods and uses thereof” (priority 2004, published 2005).

What follows are substances tested on cell-free protein synthesis (assay: Cell-free protein synthesis assay (luciferase, coupled transcription/translation)). Conditions: multiple substitution variants, relative to wild-type protein.
Type: biochemical
Set-up: key to Activity in luciferase assay: ++: same or higher than WT protein.; +: within 2-fold of WT activity.; +/−: within 3-fold of WT activity.; −−: less than one-third of WT activity
Description: The term “biological activity” as used herein is the ability of the modified or non-modified bouganin protein to inhibit protein synthesis on ribosomes, which can be assessed in a number of ways. It should be noted that a modified bouganin protein will still have biological activity even if such activity is lower than that of the non-modified protein, however it would need to have some level of detectable activity. For example, the biological activity of the modified or non-modified bouganin protein can be assessed by identifying their N-glycosidase activity, and in particular with sufficient activity to provide significant inhibition of protein translation. One such suitable assay involves testing the activity of the variant bouganin proteins in comparison to non-modified bouganin in a cell-free protein synthesis assay. A coupled transcription/translation mix containing methionine, DNA encoding the reporter protein luciferase and serial dilutions of non-modified and modified bouganin protein are co-incubated. The levels of translated luciferase are readily detected using a luminescence counter following addition of a substrate reagent. The measured luminescence is inversely proportional to the bouganin N-glycosidase activity present in the reaction. It is usual to provide a negative control such as an in-active bouganin protein, for example containing a Y70A substitution.
The biological activity of the proteins of the invention can equally be assessed in many ways. In one embodiment, modified bouganin molecules are identified with N-glycosidase activity, and in particular with sufficient activity to provide significant inhibition of protein translation. One such suitable assay involves testing the activity of the modified bouganin proteins in comparison to non-modified bouganin in a cell-free protein synthesis assay. A coupled transcription/translation mix containing methionine, DNA encoding the reporter protein luciferase and serial dilutions of non-modified and modified bouganin proteins are co-incubated. The levels of translated luciferase are readily detected using a luminescence counter following addition of a substrate reagent. The measured luminescence is inversely proportional to the bouganin N-glycosidase activity present in the reaction. It is usual to provide a negative control such as an in-active bouganin protein for example containing a Y70A substitution.
The activity of the wild-type and modified (mutant) bouganin proteins was tested by measuring their ability to inhibit protein synthesis in a cell-free protein synthesis assay.
A mixture of 10 μl TNT Coupled Transcription/Translation mix (Promega), 20 […] methionine, 120 ng pT7 luciferase DNA (Promega) and serial dilutions of WT and mutant bouganin protein in a final volume of 12.5 μl were incubated at 30° C. for one hour, after which the reaction was stopped by addition of 100 μl “SteadyGlow” luciferase assay reagent (Promega). The luciferase activity was measured using a Wallac luminescence counter. Active bouganin protein is detected as a decrease in measured luciferase activity. Each modified bouganin protein was tested in at least 5 concentrations, with each data point in duplicate. Positive and negative controls were included in each experiment.
In each instance results are expressed relative to wild-type protein activity.

Question: “Bou157: modified bouganin with V123A, D127A, Y133Q, I152A (SEQ ID No 14)” was tested. Which “Activity in luciferase assay” value did it give?
Answer: Its value is “++”.

Question: With “Bou156: modified bouganin with V123A, D127A, Y133N, I152A (SEQ ID No 13)” as the substance, how does the “Activity in luciferase assay” value read?
Answer: The value was “++”.

Same assay, conditions: single substitution variants, relative to wild-type protein

Question: With “V123N: modified bouganin protein with substitution V123N” as the substance, how does the “Activity in luciferase assay” value read?
Answer: The value was “−−”.

Question: For E151T I152E, which “Activity in luciferase assay” value is on record?
Answer: The value was “−−”.

Question: How did the “Activity in luciferase assay” value turn out when “V123G: modified bouganin protein with substitution V123G” was run?
Answer: The value was “−−”.

Question: For “E129Q: modified bouganin protein with substitution E129Q”, which “Activity in luciferase assay” value is on record?
Answer: The value was “+/− (within 3-fold of WT activity.)”.

Question: With “Y133H: modified bouganin protein with substitution Y133H” as the substance, how does the “Activity in luciferase assay” value read?
Answer: Its value is “++”.

Question: Which “Activity in luciferase assay” value does the source give for “E129G: modified bouganin protein with substitution E129G” here?
Answer: Its value is “++”.

Question: How did the “Activity in luciferase assay” value turn out when “Y133G: modified bouganin protein with substitution Y133G” was run?
Answer: Its value is “++”.

Question: “E129K: modified bouganin protein with substitution E129K” was tested. Which “Activity in luciferase assay” value did it give?
Answer: Its value is “−−”.

Question: How did the “Activity in luciferase assay” value turn out when “Y133R: modified bouganin protein with substitution Y133R” was run?
Answer: The value was “++”.

Question: “Y70A: inactive bouganin with Y70A substitution, negative control (SEQ ID NO. 129) [reference compound]” was tested. Which “Activity in luciferase assay” value did it give?
Answer: The value was “−−”.

Question: With “Y133N: modified bouganin protein with substitution Y133N” as the substance, how does the “Activity in luciferase assay” value read?
Answer: The value was “++”.

Question: How did the “Activity in luciferase assay” value turn out when “V123H: modified bouganin protein with substitution V123H” was run?
Answer: The value was “−−”.

Question: How did the “Activity in luciferase assay” value turn out when “Y133A: modified bouganin protein with substitution Y133A” was run?
Answer: The value was “++”.

Question: How did the “Activity in luciferase assay” value turn out when “Y133Q: modified bouganin protein with substitution Y133Q” was run?
Answer: Its value is “++”.

Question: “I152E: modified bouganin protein with substitution I152E” was tested. Which “Activity in luciferase assay” value did it give?
Answer: Its value is “−−”.

Question: For “V123E: modified bouganin protein with substitution V123E”, which “Activity in luciferase assay” value is on record?
Answer: The value was “−−”.

Question: With “I152A: modified bouganin protein with substitution I152A” as the substance, how does the “Activity in luciferase assay” value read?
Answer: Its value is “++”.

Question: How did the “Activity in luciferase assay” value turn out when “V123Q: modified bouganin protein with substitution V123Q” was run?
Answer: The value was “++”.

Question: Which “Activity in luciferase assay” value does the source give for “D127A: modified bouganin protein with substitution D127A” here?
Answer: Its value is “++”.

Question: “Y133E: modified bouganin protein with substitution Y133E” was tested. Which “Activity in luciferase assay” value did it give?
Answer: Its value is “+/− (within 3-fold of WT activity.)”.

Question: “E129R: modified bouganin protein with substitution E129R” was tested. Which “Activity in luciferase assay” value did it give?
Answer: Its value is “−−”.

Question: How did the “Activity in luciferase assay” value turn out when “Y133S: modified bouganin protein with substitution Y133S” was run?
Answer: Its value is “++”.

Question: With “F155H: modified bouganin protein with substitution F155H” as the substance, how does the “Activity in luciferase assay” value read?
Answer: The value was “−−”.

Question: “I158P: modified bouganin protein with substitution I158P” was tested. Which “Activity in luciferase assay” value did it give?
Answer: The value was “−−”.

Question: “I152Q: modified bouganin protein with substitution I152Q” was tested. Which “Activity in luciferase assay” value did it give?
Answer: Its value is “++”.

Question: For “V123K: modified bouganin protein with substitution V123K”, which “Activity in luciferase assay” value is on record?
Answer: The value was “−−”.

Question: “Y133D: modified bouganin protein with substitution Y133D” was tested. Which “Activity in luciferase assay” value did it give?
Answer: Its value is “++”.

Question: Which “Activity in luciferase assay” value does the source give for “F155P: modified bouganin protein with substitution F155P” here?
Answer: Its value is “−−”.

Question: With “Y133P: modified bouganin protein with substitution Y133P” as the substance, how does the “Activity in luciferase assay” value read?
Answer: Its value is “−−”.

Question: “V123P: modified bouganin protein with substitution V123P” was tested. Which “Activity in luciferase assay” value did it give?
Answer: Its value is “−−”.

Question: Which “Activity in luciferase assay” value does the source give for “V123R: modified bouganin protein with substitution V123R” here?
Answer: The value was “−−”.

Question: How did the “Activity in luciferase assay” value turn out when “V123A: modified bouganin protein with substitution V123A” was run?
Answer: The value was “++”.

Question: For “Y133T: modified bouganin protein with substitution Y133T”, which “Activity in luciferase assay” value is on record?
Answer: The value was “++”.

Question: Which “Activity in luciferase assay” value does the source give for “V123T: modified bouganin protein with substitution V123T” here?
Answer: Its value is “+/− (within 3-fold of WT activity.)”.

Question: How did the “Activity in luciferase assay” value turn out when “V123D: modified bouganin protein with substitution V123D” was run?
Answer: The value was “−−”.

Question: With “Y133K: modified bouganin protein with substitution Y133K” as the substance, how does the “Activity in luciferase assay” value read?
Answer: Its value is “++”.

Question: For “V123S: modified bouganin protein with substitution V123S”, which “Activity in luciferase assay” value is on record?
Answer: Its value is “−−”.

Question: With “D127G: modified bouganin protein with substitution D127G” as the substance, how does the “Activity in luciferase assay” value read?
Answer: Its value is “++”.

Same assay, conditions: when conjugated to the Fab fragment (FIG. 12)

Question: For “Bou156: modified bouganin with V123A, D127A, Y133N, I152A (SEQ ID No 13)”, which “potency in cell-free assay” value is on record?
Answer: Its value is “retained its potency”.

What follows are substances tested on PBMCs (peripheral blood mononuclear cells) from naive donors (assay: Naive human T-cell proliferation assay (3H-thymidine incorporation, stimulation index)). Conditions: compared with peptide 44.
Type: cell-based
Experimental: Accordingly, in the present studies, 89 synthetic 15-mer peptides (as listed in Table 1) were used in T-cell proliferation assays with PBMCs (peripheral blood mononuclear cells) from naive donors (i.e. no known sensitization to bouganin). 20 donor PBMC samples were selected to achieve an optimal coverage of MHC class II allotypes. PBMCs were stimulated with individual peptides in triplicate cultures for 7 days before proliferation was assessed by ^3H-thymidine incorporation. All peptides were diluted at two different concentrations: 1 μM and 5 μM. The stimulation indices (SI) were calculated as the amount of ^3H incorporated into the cells, divided by the amount of ^3H incorporated in mock-stimulated controls.
The peptides were used in T-cell proliferation assays with PBMCs (peripheral blood mononuclear cells) from naive donors (i.e. no known sensitization to bouganin). 20 donor PBMC were selected to get an optimal coverage of MHC class II allotypes. The allotypic coverage is in excess of 85%.
PBMCs were stimulated with individual peptides in triplicate cultures for 7 days before proliferation was assessed by ^3H-thymidine (^3H-Thy) incorporation. All peptides were tested at two different concentrations (1 μM and 5 μM). Stimulation indices (S.I.) were calculated as the amount of ^3H incorporated, divided by the amount of ^3H incorporated in mock-stimulated control cells.
Buffy coats from human blood stored for less than 12 hours were obtained from the National Blood Service (Addenbrooks Hospital, Cambridge, UK). Ficoll-paque was obtained from Amersham Pharmacia Biotech (Amersham, UK). Serum free AIM V media for the culture of primary human lymphocytes and containing L-glutamine, 50 μg/ml streptomycin, 10 μg/ml gentomycin and 0.1% human serum albumin was from Gibco-BRL (Paisley, UK). Synthetic peptides were obtained from Eurosequence (Groningen, The Netherlands) and Babraham Technix (Cambridge, UK).
Erythrocytes and leukocytes were separated from plasma and platelets by gentle centrifugation of buffy coats. The top phase (containing plasma and platelets) was removed and discarded. Erythrocytes and leukocytes were diluted 1:1 in phosphate buffered saline (PBS) before layering onto 15 ml ficoll-paque (Amersham Pharmacia, Amersham UK). Centrifugation was done according to the manufacturers recommended conditions and PBMCs were harvested from the serum+PBS/ficoll paque interface. PBMCs were mixed with PBS (1:1) and collected by centrifugation. The supernatant was removed and discarded and the PBMC pellet resuspended in 50ml PBS. Cells were again pelleted by centrifugation and the PBS supernatant discarded. Cells were resuspended using 50 ml AIM V media and at this point counted and viability assessed using trypan blue dye exclusion. Cells were again collected by centrifugation and the supernatant discarded. Cells were resuspended for cryogenic storage at a density of 3×10^7 per ml. The storage medium was 90% (v/v) heat inactivated AB human serum (Sigma, Poole, UK) and 10% (v/v) DMSO (Sigma, Poole, UK). Cells were transferred to a regulated freezing container (Sigma) and placed at −70° C. overnight. When required for use, cells were thawed rapidly in a water bath at 37° C. before transferring to 10ml pre-warmed AIM V medium.
PBMC were stimulated with protein and peptide antigens in a 96 well flat bottom plate at a density of 2×10^5 PBMC per well. PBMC were incubated for 7 days at 37° C. before pulsing with ^3H-Thy (Amersham-Pharmacia, Amersham, UK). […] C-32=sequence […] from Flu haemagglutinin residues 307-319 (SEQ ID NO:127). C-49=sequence […] from Chlamydia HSP 60 (SEQ ID NO:128).
Peptides were dissolved in DMSO to a final concentration of 10 mM, these stock solutions were then diluted 1/500 in AIM V media (final concentration 20 μM). Peptides were added to a flat bottom 96 well plate to give a final concentration of 1 and 5 μM in 100 μl. […]

Question: For “DLELGVYKLEFSIEA [compound 43, bouganin 15-mer peptide, first amino acid 127]”, which “T cell proliferation (in words)” value is on record?
Answer: Its value is “lower level T cell proliferation”.

Same assay, conditions: compilation of 20 donors, 1 μM and 5 μM

Question: “IVEDLDGDELEILEP [peptide 88, 15-mer peptide of the unprocessed form of bouganin, first amino acid 261]” was tested. Which “presence of T cell epitope” value did it give?
Answer: Its value is “T cell epitopes”.

Question: For “LGVYKLEFSIEAIHG [peptide 44, bouganin 15-mer peptide, first amino acid 130]”, which “presence of T cell epitope” value is on record?
Answer: Its value is “T cell epitopes”.

Same assay, conditions: donor 4

Question: For “LGVYKLEFSIEAIHG [peptide 44, bouganin 15-mer peptide, first amino acid 130]”, which “S.I. (stimulation index)” value is on record?
Answer: Its value is 3.5.

Same assay, conditions: donor 11

Question: With “LGVYKLEFSIEAIHG [peptide 44, bouganin 15-mer peptide, first amino acid 130]” as the substance, how does the “S.I. (stimulation index)” value read?
Answer: The value was 2.3.

Same assay, conditions: of 20 donor PBMC samples

Question: Which responsive donors does the source give for “LGVYKLEFSIEAIHG [peptide 44, bouganin 15-mer peptide, first amino acid 130]” here?
Answer: Its responsive donors is “two”.
